Usually MIC stands for the smallest concentration in the dilution series that meets the test's criterion for growth inhibition. Low readings indicate a more susceptible organism, high ones a less susceptible organism. What is called IC50 is the midpoint of a concentration-inhibition curve. Higher therefore signals weaker potency in that assay.

Converted amounts (≈) assume the structure as drawn.

One data set has as its system Salmonella strain 14028s. Put plainly: Minimum inhibitory concentration in EG minimal media. In kind it is cell-based, Salmonella Typhimurium. As to conditions: 18 h; for Growth in EG at concentration tested 1 μg/ml / Growth in EG at concentration tested 2 μg/ml / Growth in EG at concentration tested 4 μg/ml / Growth in EG at concentration tested 8 μg/ml / Growth in EG at concentration tested 16 μg/ml / Growth in EG at concentration tested 32 μg/ml: EG minimal media, 37° C.; for MIC: Salmonella, 14028S. How it is done: DksA controls transcription of metabolic and virulence genes, allowing bacteria to both grow in minimum media and cause disease. Inhibition of bacterial growth in EG minimum media was used as an easy and reliable proxy of the DksA-dependent regulation of metabolism.
In a non-limiting example, wild-type Salmonella strain 14028s was grown overnight (18.5 h), and then diluted in EG minimal media to a density of about 10^5 CFU/mL. […] Each test tube was incubated at 37° C. with shaking for 18 h and bacterial growth was evaluated. The MIC value was determined as the lowest concentration of compound that inhibited growth.

Data set [1] has as its target T1, DksA (Salmonella typhimurium, UniProt P0A1G5). Nature of the data set: DksA-mediated repression of rpsM in vitro transcription (IVT, qRT-PCR). In kind it is biochemical. Here is the method:
(§1) To measure the potency of a compound in inhibition of DksA biological function, rpsMtranscripts in vitro was determined by non-radioactive in vitro transcription reactions with qPCR analysis with divergent compounds. Briefly, 5 nM pTIM-rpsMplasmid was mixed with […] of compounds in 10 μl reaction buffer (40 mM HEPES [pH 7.4], 2 mM MgCl2, 60 mM potassium glutamate, 0.05% NP-40, 200 μM ATP, 200 μM GTP, 200 μM CTP, 200 μM UTP, and 5 nM E. coli RNA polymerase holoenzyme (NEB, Ipswich, MA) with 5 μM DksA. The in vitro transcription was carried out at 37° C. for 10 min, and then terminated at 70° C. for 10 min. To remove template DNA after treated with DNaseI, DNA-free DNA Removal kit (ThermoFisher) was used according to manufacturer's direction. The resulting materials were used as templates to generate cDNA with 100 U MMLV reverse transcriptase (Promega), 0.45 μM gene specific primer, and 20 U RNase inhibitor (Promega). The amount of cDNA synthesized for 1 h at 42° C. was quantified by real-time PCR (qRT-PCR). The copy number of specific transcripts was calculated to the standard curve generated with known gene copy concentrations. The IC50 is the concentration at which the curve passes through the 50% inhibition level. Standard deviation was calculated from 3 independent experiments.
The compounds obtained in this screen were further analyzed for binding to the acidic pocket at the tip of DksA coiled-coil domain using the computer search program Dock. The analysis identified over 400 compounds. A panel of 40 compounds was selected from the top hits based on free energy binding scores. These compounds were investigated using the computer modeling program O. Two additional criteria were applied in order to narrow down the list of candidates: First, the compounds needed to fit deep into the pocket without any clashes; and second, the compounds bound to DksA should have minimal exposed moieties. The compounds selected were further refined according to energy minimization as calculated by the CNS program. 23 compounds were obtained from MolPort and they were tested for their ability to interfere with DksA in a high throughput screen that combined in vitro transcription with highly specific and quantitative qRT-PCR. Five of these compounds, including N-(3,4-dimethoxyphenyl)-1H-1,2,4-triazole-3-carboxamide (1), prevented DksA-mediated repression of rpsM in vitro transcription to some degree. […] Without intending to be limited to any particular theory, the effect that 1 has on DksA-dependent rpsM or hisG gene transcription is potentially due to differences in promoter activity.
(§2) The compounds were initially tested at 0.1 μM and 1 μM using as a target the promoter of the livJ gene that encodes a transporter of branch-chain amino acids (Table 4).
In general terms: In qPCR the cycle at which signal appears reflects the starting amount.

Data set [2] addresses T1, DksA. Put plainly: DksA-dependent livJ in vitro transcription. As to conditions: livJ promoter; for IVT: concentration showing activity. In kind it is biochemical. Here is the method:
as §1, §2

The next data set is described as follows: Compound solubility. As to conditions: for Compound Solubility, 1 μM: solvent at 1 μM; for Compound Solubility, 10 μM: solvent at 10 μM; for Compound Solubility, 100 μM: solvent at 100 μM; for Compound Solubility, 1 mM: solvent at 1 mM; for Compound Solubility, 10 mM: solvent at 10 mM; for Compound Solubility, 16 mg/ml: solvent at 16 mg/ml. It counts as physicochemical.

T1 sequence (P0A1G5 whole entry): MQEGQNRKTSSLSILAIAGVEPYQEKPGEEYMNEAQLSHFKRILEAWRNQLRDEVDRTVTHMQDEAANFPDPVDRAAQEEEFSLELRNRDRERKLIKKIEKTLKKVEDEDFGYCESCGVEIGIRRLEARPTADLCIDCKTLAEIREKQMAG

`O=C(NCCCCc1ccccc1)c1nc[nH]n1` [Compound 16, N-(4-phenylbutyl)-1H-1,2,4-triazole-3-carboxamide]: in the data set with Salmonella strain 14028s, the “Growth in EG at concentration tested 1 μg/ml” value is listed as “+”, the “Growth in EG at concentration tested 2 μg/ml” value is “+”, the “Growth in EG at concentration tested 4 μg/ml” value is recorded as “+” and the MIC worked out at 16 µg/mL (≈ 65.5 µM). Moreover, the IC50 against DksA [1] turned out to be 91 nM. Moreover, at DksA [2], the “In vitro transcription assay result, 0.1 μM” value is “no induction”; the “In vitro transcription assay result, 1 μM” value is given as “good repression”; the IVT was determined as 0.1 µM. For the same compound, in “Compound solubility”, the “Compound Solubility, 1 μM” value is “water”; the “Compound Solubility, 10 μM” value is on record as “water”; the “Compound Solubility, 100 μM” value is listed as “water”; the “Compound Solubility, 1 mM” value is recorded as “water”. Further, in the data set “Compound solubility”, the “Compound Solubility, 10 mM” value is “DMSO” and the “Compound Solubility, 16 mg/ml” value is reported as “DMSO”.
As for `O=C(NCCCc1ccccc1)c1nc[nH]n1` [Compound 15, N-(3-phenylpropyl)-1H-1,2,4-triazole-3-carboxamide], in the data set with Salmonella strain 14028s, the “Growth in EG at concentration tested 1 μg/ml” value is on record as “+”, the “Growth in EG at concentration tested 2 μg/ml” value was “+”, the “Growth in EG at concentration tested 4 μg/ml” value is “+” and the “Growth in EG at concentration tested 8 μg/ml” value was “+”. This compound displayed an MIC in the data set with Salmonella strain 14028s of 16 µg/mL (≈ 69.5 µM). In addition, the IC50 against DksA [1] came out at 51 nM. Moreover, on DksA [2], the “In vitro transcription assay result, 0.1 μM” value was “no induction”; the “In vitro transcription assay result, 1 μM” value is given as “no induction”; the IVT came to 0.1 µM. In addition, in the data set “Compound solubility”, the “Compound Solubility, 1 μM” value was “water”; the “Compound Solubility, 10 μM” value was “water”; the “Compound Solubility, 100 μM” value is on record as “water”; the “Compound Solubility, 1 mM” value is “water”. Besides, in “Compound solubility”, the “Compound Solubility, 10 mM” value was “water” and the “Compound Solubility, 16 mg/ml” value is recorded as “DMSO”.
Regarding `C[C@@H](NC(=O)c1nc[nH]n1)c1ccccc1` [Compound 17, (R)-N-(1-phenylethyl)-1H-1,2,4-triazole-3-carboxamide], in the data set with Salmonella strain 14028s, the “Growth in EG at concentration tested 1 μg/ml” value is on record as “+”, the “Growth in EG at concentration tested 2 μg/ml” value is “+”, the “Growth in EG at concentration tested 4 μg/ml” value was “+” and the “Growth in EG at concentration tested 8 μg/ml” value was “+”. In the data set on Salmonella strain 14028s, the “Growth in EG at concentration tested 16 μg/ml” value is “+” and the “Growth in EG at concentration tested 32 μg/ml” value is “+”. For the same compound, at DksA [2], the “In vitro transcription assay result, 0.1 μM” value is given as “no induction”; the “In vitro transcription assay result, 1 μM” value is on record as “no induction”; the IVT was found to be 0.1 µM. Moreover, in the data set “Compound solubility”, the “Compound Solubility, 1 μM” value is recorded as “water”; the “Compound Solubility, 10 μM” value was “water”; the “Compound Solubility, 100 μM” value is “water”; the “Compound Solubility, 1 mM” value is “water”. For the same compound, in “Compound solubility”, the “Compound Solubility, 10 mM” value is “water” and the “Compound Solubility, 16 mg/ml” value is recorded as “DMSO”.
For `O=C(Nc1ccc(C(F)(F)F)cc1)c1nc[nH]n1` [Compound 11, N-(4-(trifluoromethyl)phenyl)-1H-1,2,4-triazole-3-carboxamide], in the data set on Salmonella strain 14028s, the “Growth in EG at concentration tested 1 μg/ml” value is on record as “+”, the “Growth in EG at concentration tested 2 μg/ml” value was “+”, the “Growth in EG at concentration tested 4 μg/ml” value is “+” and the “Growth in EG at concentration tested 8 μg/ml” value was “+”. In the data set on Salmonella strain 14028s, the “Growth in EG at concentration tested 16 μg/ml” value is given as “+” and the “Growth in EG at concentration tested 32 μg/ml” value is given as “+”. At DksA [2], the “In vitro transcription assay result, 0.1 μM” value is “good repression”; the “In vitro transcription assay result, 1 μM” value was “good repression”; the IVT is 0.1 µM. In “Compound solubility”, the “Compound Solubility, 1 μM” value is on record as “water”; the “Compound Solubility, 10 μM” value is “water”; the “Compound Solubility, 100 μM” value was “water”; the “Compound Solubility, 1 mM” value is reported as “DMSO”. In the data set “Compound solubility”, the “Compound Solubility, 10 mM” value was “DMSO” and the “Compound Solubility, 16 mg/ml” value was “DMSO”.

(Values after patent US12043601B2, “N-substituted-1H-1,2,4-triazole-3-carboxamides, analogues thereof, and methods of treatment using same” (THE REGENTS OF THE UNIVERSITY OF COLORADO, priority 2018, dated 2024).)
